From US5593970A, “Heterocyclic anthracycline analogs” (priority 1994, dated 1997) come the findings set out here.

In data set [1] the test system is BE-1. Briefly: Soft agar colony formation disk diffusion assay. The format is cell-based, human. Summed up: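 Zone of inhibition, disk edge to the most proximal colonies, is the reported measure, checked under an inverted microscope at 40×. Colonies were cell aggregates of more than 50 cells, grown 10–20 days at 37 °C in soft agar around a drug-loaded paper disk.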

For data set [2], the system named is solid tumors. As to the kind of experiment: NCI assay, mean potency in solid tumors. Conditions: for GI50 / CC50: Homo sapiens; for GI50: read-out: Average LOG10 GI50, Mean Potency in solid tumors; for Average LOG10 LC50, Mean Potency in solid tumors: 2880 min; for CC50: 48 h, read-out: Average LOG10 LC50, Mean Potency in solid tumors.
Data set [3] relates to tumor cell lines. As to the kind of experiment: NCI sulforhodamine B assay, all cell lines. To be noted: for CC50 / IC100 / GI50: Homo sapiens; for CC50 / IC100: 48 h; for CC50: read-out: Log10 LC50, Mean / MG-MID, all cell lines (converted); for IC100: read-out: Log10 TGI, Mean / MG-MID, all cell lines; for GI50: read-out: Log10 GI50, Mean / MG-MID, all cell lines (converted). (The SRB assay estimates cell density from bound dye.)

In data set [4] the test system is Renal. As to the kind of experiment: NCI assay, average per cancer type. Conditions: Homo sapiens; for CC50: 48 h, read-out: Average LOG10 LC50; for GI50: read-out: Average LOG10 GI50.
Data set [5] deals with Leukemia. As to the kind of experiment: NCI assay, average per cancer type. Conditions: for CC50: 48 h, read-out: Average LOG10 LC50; for GI50: read-out: Average LOG10 GI50.
Data set [6] has as its system NSC Lung. As to the kind of experiment: NCI assay, average per cancer type. Conditions: Homo sapiens; for CC50: 48 h, read-out: Average LOG10 LC50; for GI50: read-out: Average LOG10 GI50.
The subject of data set [7] is SC Lung. Briefly: NCI assay, average per cancer type. Conditions: Homo sapiens; for GI50: read-out: Average LOG10 GI50; for CC50: 48 h, read-out: Average LOG10 LC50.
Data set [8] concerns Colon. As to the kind of experiment: NCI assay, average per cancer type. Conditions: Homo sapiens; for CC50: 48 h, read-out: Average LOG10 LC50; for GI50: read-out: Average LOG10 GI50.
Data set [9] has as its system CNS. As to the kind of experiment: NCI assay, average per cancer type. To be noted: Homo sapiens; for GI50: read-out: Average LOG10 GI50; for CC50: 48 h, read-out: Average LOG10 LC50.
Data set [10] deals with Melanoma. As to the kind of experiment: NCI assay, average per cancer type. To be noted: Homo sapiens; for CC50: 48 h, read-out: Average LOG10 LC50; for GI50: read-out: Average LOG10 GI50.

Counter-ions that a name gives are not always drawn.

Turning to “3-(2-hydroxy)aceto-6-hydroxy-1,2,3,4-tetrahydro-(2-oxygen)naphthacene-5,12-dione and 3-(2-hydroxy)aceto-11-hydroxy-1,2,3,4-tetrahydro-(2-oxygen)naphthacene-5,12-dione [BCH-694]”, the zone of inhibition was 54.9 ± 8.6 Zone Units in data set [1] (10 μg/DISK) and 189.0 ± 8.4 Zone Units in [1] (100 μg/DISK).
The corresponding values for “3-carbomethoxy-6-hydroxy-1,2,3,4-tetrahydro-(2-sulfur)naphthacene-5,12-dione and 3-carbomethoxy-11-hydroxy-1,2,3,4-tetrahydro(2-sulfur)naphthacene-5,12-dione [BCH-693]” are 0 Zone Units and 76.2 ± 21.5 Zone Units.
As to `COC(=O)C1CC2=C(C(=O)c3c(cc4ccccc4c3O)C2=O)C(O[C@H]2C[C@H](NC(=O)C(F)(F)F)[C@H](O)[C@H](C)O2)O1` (mixture of isomers) [BCH-242, (1'S,1R,3S) and (1'S, 1S,3R)-Methyl[11-hydroxy-1-2',3',6'-trideoxy-3-trifluroacetamido-L-lyxohexopyranose)-5,12-dioxo-3,4,5,12-tetrahydroanthraceno[2,3-c]pyran-3-yl]formate], the GI50 in [2] is 0.661 µM; in data set [4], 0.955 µM; in data set [5], 0.316 µM; in data set [6], 0.977 µM; in data set [7], 0.355 µM; in [8], 0.316 µM. For the same molecule, the GI50 in data set [9] was 1.55 µM; in data set [10] it was 0.437 µM. Moreover, in [2], the “Average LOG10 LC50, Mean Potency in solid tumors” value is reported as -5.32 ± 0.20 log molar. For the same molecule, in [3], the “antiproliferative and cytotoxic activity in words” value is recorded as “most of the cell lines of solid tumors ultimately show cytotoxicity to the drug”. The CC50 is 14.5 µM in [3]; 6.03 µM in data set [4]; greater than 100 µM in [5]; 6.17 µM in data set [6]; 2.57 µM in data set [8]; 3.89 µM in [10]. Besides, in [3], the IC100 was 5.25 µM. Also, the “Log10 TGI, Mean / MG-MID” value in data set [3] (all cell lines) was -5.52 log molar. In addition, the “Log10 LC50, Mean / MG-MID” value in data set [3] (all cell lines, 2880 min) is recorded as -5.09 log molar.
Regarding `CCOC(=O)[C@@H]1CC2=C(C(=O)c3c(c(O)c4ccccc4c3OC(C)=O)C2=O)[C@@H](O)O1` (mixture of isomers) [BCH-658, (1S,3S) and (1R,3R) Ethyl[11-acetoxy-1,6-dihydroxy-5,12-dioxo-3,4,5,12-tetrahydroanthraceno (2,3-c)pyran-3-yl]formate], the CC50 in data set [2] is greater than 100 µM; in [3], 100 µM; in [4], greater than 100 µM; in data set [5] it was greater than 100 µM; in [6], greater than 100 µM; in data set [7], greater than 100 µM. For the same molecule, the CC50 in data set [8], in data set [9] and in data set [10] was greater than 100 µM in each case. The GI50 in data set [2] was 51.3 µM; in [3] it was 70.8 µM; in [4] it was 46.8 µM; in data set [5], greater than 100 µM; in data set [6], greater than 100 µM; in data set [7], greater than 100 µM. The GI50 is 61.7 µM in data set [8], 46.8 µM in [9] and greater than 100 µM in [10]. For the same molecule, the IC100 in data set [3] is 97.7 µM. In addition, the zone of inhibition in data set [1] (10 μg/DISK) and in data set [1] (100 μg/DISK) was 0 Zone Units each time.
For the molecule `CCOC(=O)[C@@H]1CC2=C(C(=O)c3cc4ccccc4c(OC(C)=O)c3C2=O)[C@@H](O)O1` (mixture of isomers) [BCH-660, (1S,3S) and (1R,3R)-Ethyl-[6-acetoxy-1-hydroxy-5,12-dioxo-3,4,5,12-tetrahydroanthraceno (2,3-c)pyran-3-yl]formate], the CC50 in [2] was 11.2 µM; in data set [3], 21.4 µM; in [4], 7.94 µM; in data set [5], greater than 100 µM; in data set [6] it was 19.5 µM; in data set [7], greater than 100 µM. The results for the CC50 in data set [8], in [9] and in data set [10] were greater than 100 µM, 15.8 µM and 10.5 µM, respectively. Moreover, the GI50 in data set [2] was 0.891 µM; in data set [3], 0.813 µM; in data set [4], 0.912 µM; in [5], 0.316 µM; in data set [6], 0.977 µM; in [7] it was 1 µM. Also, the GI50 in data set [8] is 0.617 µM; in data set [9], 0.955 µM; in data set [10], 0.955 µM. In data set [3], the “antiproliferative and cytotoxic activity in words” value is “strong antiproliferative (GI50) and potent cytotoxic (LC50) activities”. Besides, in data set [3], the IC100 is 2.82 µM. The zone of inhibition in [1] (10 μg/DISK) worked out at 45.7 ± 21.5 Zone Units; in data set [1] (100 μg/DISK) it was 125.0 ± 12.7 Zone Units.
For `COC(=O)[C@@H]1CC2=C(C(=O)c3c(c(OC)c4ccccc4c3O)C2=O)[C@@H](O[C@H]2C[C@H](NC(=O)C(F)(F)F)[C@H](O)[C@H](C)O2)O1` (mixture of isomers) [BCH-674, (1'S,1S,3R) and 1'S,1R,3S) Methyl(11-hydroxy-6-methoxy-1-[2',3',6'-trideoxy-3-trifluoroacetamido-4'-hydroxy-L-lyxohexopyranose]-5,12-dioxo-3,4,5,12-tetrahydroanthra-ceno[2,3-c]pyran-3-yl) formate], the CC50 in [2] is 81.3 µM; in data set [3] it was 67.6 µM; in data set [4], 57.5 µM; in [5] it was greater than 100 µM; in data set [6] it was 69.2 µM; in [7], 120 µM. Besides, the CC50 in data set [8] was 97.7 µM; in data set [9], 63.1 µM; in [10], 89.1 µM. Besides, the GI50 in data set [2] is 12.3 µM; in data set [3], 12.3 µM; in [4], 8.91 µM; in data set [5], 8.71 µM; in data set [6] it was 9.33 µM; in data set [7] it was 13.2 µM. Further, the GI50 in data set [8] is 13.5 µM; in data set [9] it was 13.8 µM; in data set [10], 13.2 µM. Also, the “Average LOG10 LC50, Mean Potency in solid tumors” value in [2] is listed as -4.09 ± 0.11 log molar. Besides, the IC100 in data set [3] is 30.2 µM.
In the case of `COC(=O)[C@H]1CC2=C(C(=O)c3c(c(OC)c4ccccc4c3O)C2=O)[C@H](O[C@H]2C[C@H](NC(=O)C(F)(F)F)[C@H](O)[C@H](C)O2)O1` (mixture of isomers) [BCH-675, (1'S,1S,3R) and 1'S,1R,3S) Methyl(11-hydroxy-6-methoxy-1-[2',3',6'-trideoxy-3-trifluoroacetamido-4'-hydroxy-L-lyxohexopyranose]-5,12-dioxo-3,4,5,12-tetrahydroanthra-ceno[2,3-c]pyran-3-yl) formate], the CC50 is 66.1 µM in data set [2]; 57.5 µM in data set [3]; 56.2 µM in data set [4]; greater than 100 µM in [5]; 56.2 µM in data set [6]; 85.1 µM in data set [8]. The CC50 in data set [9] was 61.7 µM; in data set [10], 79.4 µM. Further, the GI50 is 8.32 µM in data set [2]; 7.94 µM in data set [3]; 9.12 µM in data set [4]; 2.95 µM in data set [5]; 9.33 µM in data set [6]; 7.24 µM in data set [7]. Besides, the GI50 in data set [8] is 8.71 µM; in data set [9], 10.7 µM; in [10] it was 5.89 µM. In addition, the IC100 in data set [3] is 21.4 µM. The zone of inhibition in data set [1] (10 μg/DISK) is on record as 0 Zone Units; in data set [1] (100 μg/DISK) it was 46.7 ± 5.3 Zone Units.
Consider `CCOC(=O)C1CC2=C(CO1)C(=O)c1c(c(O)c3ccccc3c1OC(C)=O)C2=O` (stereo not shown) [BCH-654, Ethyl[11-acetoxy-6-hydroxy-5,12-dioxo-3,4,5,12-tetrahydroanthraceno(2,3-c)pyran-3-yl]formate], for which the zone of inhibition in [1] (10 μg/DISK) was 24.4 ± 8.6 Zone Units; in data set [1] (100 μg/DISK), 153.0 ± 1.4 Zone Units.
With `CCOC(=O)[C@@H]1CC2=C(C(=O)c3cc4ccccc4c(O)c3C2=O)[C@@H](O[C@H]2C[C@H](NC(=O)C(F)(F)F)[C@H](O)[C@H](C)O2)O1` [BCH-681, (1'S,1R,3S)Ethyl[6-hydroxy-5,12-dioxo-1-(3'-trifuloroacetamido-1-daunosaminyl)-3,4,5,12-tetrahydroanthraceno(2,3-C)pyran-3-yl]formate], the CC50 is 12.3 µM in [2]; 16.2 µM in data set [3]; 21.9 µM in data set [4]; less than 100 µM in data set [5]; 22.9 µM in data set [6]; 6.61 µM in data set [7]. Besides, the results for the CC50 in data set [8], in data set [9] and in [10] were 7.24 µM, 22.4 µM and 5.01 µM, respectively. In addition, the GI50 in [2] is 2.09 µM; in data set [3], 2.14 µM; in data set [4], 3.02 µM; in data set [5] it was 2.04 µM; in data set [6], 2.88 µM; in data set [7] it was 1.7 µM. The GI50 was 1.41 µM in data set [8], 2.88 µM in data set [9] and 1.12 µM in [10]. Further, the IC100 in data set [3] was 5.5 µM.
